The text below walks through data of US20020082273A1, “Agents for use in the treatment of alzheimer's disease” (priority 1998, published 2002).

Data set [1] has as its target T1, Aβ1-42 (Homo sapiens, UniProt P05067). The data set is described as follows: Effect of chelators on metal reduction by Aβ1-42. The class given is biochemical. Particulars: chelator 200 μM, Fe^3+ 10 μM, ambient oxygenation.
Data set [2] concerns the target T1, Aβ1-42. The experiment in a line: Effect of metal chelators on H2O2 production from Aβ1-42. The class given is biochemical. The conditions noted are these: 1 μM Fe^3+; chelator 200 μM.
For data set [3] the following is noted: in vivo; cited from earlier work.
For another data set, the system named is Alzheimer's disease. The conditions noted are these: clinical administration; cited from earlier work.
The nature of data set [4]: Metal reduction assay, Fe^3+ to Fe^2+. The class given is biochemical. The conditions noted are these: 10 μM Fe^3+, PBS pH 7.4, 1 hr 37° C. How it is done: (§1) The metal reduction assay was performed using a 96-well microtiter plate (Costar) based upon a modification of established protocols (Landers, J. W., et al., Amer. Clin. Path. 29:590 (1958); Landers, J. W., et al., Clinica Chimica Acta 3:329 (1958)). Polypeptides (10 μM) or Vitamin C (100 μM), metal ions (10 μM, Fe(NO3)3 or Cu(NO3)2), and reduced metal ion indicators, bathophenanthrolinedisulfonic acid (BP, for Fe^2+, Sigma, 200 μM) or bathocuproinedisulfonic acid (BC, for Cu^+, Sigma, 200 μM), were coincubated in phosphate buffered saline (PBS), pH 7.4, for 1 hr at 37° C. The metal ion solutions were prepared by direct dilution in the buffer from their aqueous stocks purchased from National Institute of Standards and Technology (NIST). Absorbances were then measured at 536 mn (Fe^2+-BP complex) and 483 nm (Cu^+-BC complex), respectively, using a 96-well plate reader (SPECTRAmax 250, Molecular Devices, CA). In control samples, both metal ion and indicator were present to determine the background buffer signal. As a further control, both metal ion and peptide were present in the absence of indicator to estimate the contribution of light scattering due to turbidity to the absorbance reading at these wavelengths. The net absorbances (ΔA) at 536 nm or 483 nm were obtained by deducting the absorbances from these controls from the absorbances generated by the peptide and metal in the presence of the respective indicator.
The concentrations of reduced metal ions (Fe^2+ or Cu^+) were quantified based on the formula: Fe^2+ or Cu^+ (˜M)=A*10^6/(L*M), where L is the measured equivalent vertical pathlength for a well of 300 μL volume as described in the instrument's specifications manual (0.856 cm for Fe^2+; 1.049 cm for Cu^+); M is the known molecular absorbance (M^−1 cm^−1) which is 7124 (for Fe^2+-BP complex) or 2762 (for Cu^+-BC complex).

A short description of data set [5]: H2O2 assay, production by Aβ peptides. The conditions noted are these: 1 μM Fe^3+, ambient O2, PBS pH 7.4, 1 hour 37° C. The class given is biochemical.
Experimental: Polypeptides (10 μM) or Vitamin C (10 μM), Fe^3+ or Cu^2+ (1 μM) and a H2O2 trapping agent-Tris(2-Carboxyethyl)Phosphine Hydrochloride (TCEP, Pierce, 50 μM)-were co-incubated in PBS buffer (300 μL), pH 7.4, for 1 hour at 37° C. Under identical conditions, catalase (Sigma, 100 U/mL) was substituted for the polypeptides, to serve as a control signal representing 0 μM H2O2. Following incubation, the unreacted TCEP was detected by 5,5-Dithio-bis(2-Nitrobenzoic acid) (DTNB, Sigma, 50 KLM) which generates 2 moles of the coloured product.
The nature of data set [6]: Cu^2+-induced SDS-resistant polymerization of Aβ peptides, western blot image analysis. The class given is biochemical, human. Here is the method:
Following incubation (37° C.), aliquots of each reaction (2 ng peptide) were collected at 0 d, 1 d, 3 d and 5 d and western blotted using anti-Aβ monoclonal antibody 8E10 (FIG. 9). Migration of the molecular size markers are indicated (kDa). […] It should be noted that other means of visualizing and/or determining the presence or absence of polymerization other than western blot analysis may be used. Such other means include but are not limited to density sedimentation by centrifugation of the samples.
The generation of SDS-resistant Aβ polymers by metal ions was tested by incubating Cu^2+ (30 μM) or Zn^2+ (30 μM) at pH 6.6, 7.4 and 9.0 with Aβ1-40.
(0-30 μM) at pH 7.4 and 6.6 and the samples analyzed by Western blot and the signal quantitated using the Fluoro-S Image Analysis System (Bio-Rad, Hercules, Calif.) as previously described.

The nature of data set [7]: Metal reduction assay, Cu^2+ to Cu^+. The class given is biochemical. Particulars: 10 μM Cu^2+, PBS pH 7.4, 1 hr 37° C. How it is done:
Aβ (10 μM in PBS, pH 7.4 or 6.8, as shown) was incubated for 30 minutes (37° C.) in the presence of Cu^2+10 μM ±Zn^2+ 10 μM). […] levels (n=3, ±SD) were assayed against a standard curve.
as §1, with “Polypeptides” for “The metal reduction assay was performed using a 96-well microtiter plate (Costar) based upon a modification of established protocols (Landers, J. W., et al., Amer. Clin. Path. 29:590 (1958); Landers, J. W., et al., Clinica Chimica Acta 3:329 (1958)). Polypeptides”, “Absorbances were then measured at 536 mn (Fe^2+-BP complex) and 483 nm (Cu^+-BC complex), respectively, using a 96-well plate reader (SPECTRAmax 250, Molecular Devices, CA).” left out

A short description of a further data set: TBARS assay of OH. The class given is biochemical. Particulars: 10 μM peptide, 1 μM Fe^3+ or Cu^2+. Here is the method:
All data points are means ±SD, n=3.
The Thiobarbituric Acid-Reactive Substance (TBARS) assay for incubation mixtures with Fe^3+ or Cu^2+ was performed in a 96-well microtiter format modified from established protocols (Gutteridge et al. Biochim. Biophys. Acta 759: 38-41 (1983)). Aβ peptide species (10 μM) or Vitamin C (100 μM), were incubated with Fe^3+ or Cu^2+ (1 μM) and deoxyribose (7.5 mM, Sigma) in PBS, pH 7.4. Following incubation (37° C., 1 hour), glacial (17 M) acetic acid and 2-thiobarburic acid (1%, w/v in 0.05 M NaOH, Sigma) were added and heated (100° C., 10 min). The final mixtures were placed on ice for 1-3 minutes before absorbances at 532 nm were measured. The net absorbance change for each sample were obtained by deducting the absorbance from a control sample consisting of identical chemical components except for the Vitamin C or Aβ peptides.

T1 sequence (P05067 672-713 limits assumed): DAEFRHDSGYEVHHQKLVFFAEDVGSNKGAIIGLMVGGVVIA

For `CC(=O)N(O)CCCCCNC(=O)CCC(=O)N(O)CCCCCNC(=O)CCC(=O)N(O)CCCCCN` [DFO], the “effect on production of Fe^2+ by Aβ1-42” value at Aβ1-42 [1] is recorded as “nearly halved”. Moreover, the “effect on H2O2 formation by Aβ1-42” value at Aβ1-42 [2] was “had no effect on H2O2 formation”. In [3], the “brain / blood-brain barrier penetration” value is reported as “does not easily penetrate the blood-brain barrier”. For the same molecule, the “effect on progression of AD” value in the data set on Alzheimer's disease is recorded as “effective in preventing the progression of AD”.

For “Aβ1-42: synthetic human Aβ peptide, residues 1-42”, in data set [4], the “reduction of available Fe^3+” value worked out at 50%. In addition, the H2O2 generated in data set [5] was 10 µM. Further, the “SDS-resistant polymers: Monomer” value in data set [6] (pH 6.6, [Cu^2+] 0) was 61.0; in [6] (pH 6.6, [Cu^2+] 0.5), 52.1; in data set [6] (pH 6.6, [Cu^2+] 5) it was 59.6; in [6] (pH 6.6, [Cu^2+] 10), 52.3; in data set [6] (pH 7.4, [Cu^2+] 0), 76.61; in data set [6] (pH 7.4, [Cu^2+] 0.5) it was 70.7. For the same molecule, the “SDS-resistant polymers: Monomer” value in data set [6] (pH 7.4, [Cu^2+] 1) came out at 64.9; in data set [6] (pH 7.4, [Cu^2+] 5), 56.1; in [6] (pH 7.4, [Cu^2+] 10) it was 55.1; in data set [6] (pH 7.4, [Cu^2+] 30) it was 57.1. For the same molecule, the “SDS-resistant polymers: Pentamer” value in data set [6] (pH 6.6, [Cu^2+] 0) stood at 3.8; in [6] (pH 6.6, [Cu^2+] 10) it was 2.2; in data set [6] (pH 7.4, [Cu^2+] 0), 1.9; in [6] (pH 7.4, [Cu^2+] 0.5), 2.5; in data set [6] (pH 7.4, [Cu^2+] 1), 4.0; in [6] (pH 7.4, [Cu^2+] 5), 4.1. The “SDS-resistant polymers: Pentamer” value stood at 4.3 in [6] (pH 7.4, [Cu^2+] 10) and 4.2 in data set [6] (pH 7.4, [Cu^2+] 30). The “SDS-resistant polymers: Tetramer” value was 8.6 in data set [6] (pH 6.6, [Cu^2+] 0); 12.0 in data set [6] (pH 6.6, [Cu^2+] 0.5); 7.1 in data set [6] (pH 6.6, [Cu^2+] 5); 13.6 in data set [6] (pH 6.6, [Cu^2+] 10); 5.5 in [6] (pH 7.4, [Cu^2+] 0); 6.2 in data set [6] (pH 7.4, [Cu^2+] 0.5). The “SDS-resistant polymers: Tetramer” value in data set [6] (pH 7.4, [Cu^2+] 1) is listed as 7.4; in [6] (pH 7.4, [Cu^2+] 5), 8.7; in [6] (pH 7.4, [Cu^2+] 10), 10.3; in [6] (pH 7.4, [Cu^2+] 30), 8.3. For the same molecule, the “SDS-resistant polymers: Trimer” value was 27.3 in [6] (pH 6.6, [Cu^2+] 0); 33.8 in [6] (pH 6.6, [Cu^2+] 0.5); 16.0 in data set [6] (pH 7.4, [Cu^2+] 0); 20.5 in data set [6] (pH 7.4, [Cu^2+] 0.5); 23.6 in data set [6] (pH 7.4, [Cu^2+] 1).

On to “rat Aβ1-40: rat Aβ with substitutions R5→G, Y10→F, H13→R compared to human Aβ (DAEFGHDSGFEVRHQKLVFFAEDVGSNKGAIIGLMVGGVV; Amyloid-beta protein 40; UniProt P08592 672-711, looked up)”, for which, in data set [7], the “reduction of available Cu^2+” value is reported as “reduced no Cu^2+”. Further, the “reduction of available Fe^3+” value in data set [4] is reported as “did not significantly facilitate the reduction of Fe^3+”. Also, in “TBARS assay of OH.”, the “OH. generation (TBARS)” value is given as “did not generate OH”.

In the case of vitamin E, the “effect on progression of AD” value in the data set with Alzheimer's disease was “delay the progression of clinical AD”.
